Row | melting point | SMILES
1 | 158 to 162 °C | O=S(=O)(c1ccccc1)n1c2ccc(CCc3ccccc3)cc2c2cc(Cl)cnc21
2 | 116 to 117 °C | CC(C)(C)OC(=O)N1CCC(COc2ccc(C=O)cc2)CC1
3 | 92 to 93 °C | O=C(OC1CCCCCCC1=O)c1ccccc1 (centres undefined)
4 | 124 to 125 °C | O=C(O)c1coc(Cl)c1
5 | 182 to 183 °C | Cc1c(NC(=O)CC(C)(C)C)c(C)c2c(c1-c1cccc(F)c1)OCC2c1ccc(C(C)C)cc1 (centres undefined)
6 | 62 to 65 °C | CN(CCCc1ccc(F)cc1)[C@H]1CC[C@H](c2ccc3[nH]c(=O)oc3c2)CC1
7 | 112 °C | N#Cc1ccc(COc2cccc(OCc3ccc4ccccc4n3)c2)cc1
8 | > 260 °C | NCc1ccc(N2CCN(c3ccc(CCC(=O)O)cc3)C2=O)cc1
9 | 218 to 220 °C | CN1CCN(Cc2ccc(Nc3ccnc4cc(C(F)(F)F)ccc34)cc2)CC1
10 | 93 to 95 °C | CC(=O)NCCC1CCc2ccc3nc(C)oc3c21 (centres undefined)
11 | 118 to 120 °C | CCCCCc1c(C(C)C)nc(C(C)C)c(CO)c1-c1ccc(F)c(C(O)c2ccc(F)cc2)c1 (centres undefined)
12 | 174 to 175 °C | Cc1c(Nc2c(C#N)cncc2-c2cc3cc(CN4CCCCC4)ccc3s2)ccc2[nH]ccc12
13 | 93 to 94 °C | Cc1ccc(C)c(OCCCC(C)(C)C(=O)Nc2cccc(N)c2)c1
14 | 70 to 71 °C | O=CN1CCC(c2ccccc2Cc2ccccc2)C1 (centres undefined)
15 | 142 to 144 °C | COc1cc2c(Nc3cccc(N(C)C)c3)c(C#N)cnc2c(OC)c1OC
16 | 154 to 156 °C | CCCCn1c(=O)c(NC(=O)Nc2c(C(C)C)cccc2C(C)C)c(-c2cccc(OCCC)c2)c2cccnc21
17 | 188 to 192 °C | CC(COc1ccc(CC(=O)O)cc1Cl)NCC(O)c1cccc(Cl)c1 (centres undefined)
18 | 285 °C | Cc1cc(-c2ccc(C(F)(F)F)cc2)cn2c(-c3nc(-c4ccc(S(N)(=O)=O)s4)no3)cnc12
19 | > 220 °C | Clc1ccnc2[nH]c3ccc(Br)cc3c12
20 | 132 to 133 °C | CCOC(=O)c1cc(-c2nnnn2C)c(-c2ccc(F)cc2)s1
21 | 105 to 108 °C | CS(=O)(=O)NCCS(=O)(=O)N1CCN(S(=O)(=O)c2ccc(-c3ccc(C(F)(F)F)cc3)s2)[C@@H](C(=O)NO)C1
22 | 123 to 126 °C | CCOc1cc(OCC)c2c(C)c(CCCl)c(=O)oc2c1
23 | 236 to 238 °C | C#CCn1c(=O)ccc2cc(F)c(-n3c(=O)cc(C(F)(F)F)n(C)c3=O)cc21
24 | 198 to 200 °C | O=C(O)c1cn(-c2nccs2)c2c(F)c(F)c(F)cc2c1=O

Row | melting point | SMILES
25 | 169 to 170 °C | O=c1cc(-c2ccoc2)c2ccc(Sc3cc(F)cc(-c4cccnc4)c3)cc2o1
26 | 238 to 239 °C | Cc1oc(-c2ccccc2)nc1C(O)COc1ccc(CC2SC(=N)NC2=O)cc1 (centres undefined)
27 | 68 to 72 °C | N#Cc1ncn(C2OC(COC(=O)c3ccccc3)C(OC(=O)c3ccccc3)C2OC(=O)c2ccccc2)c1C#N (centres undefined)
28 | 123 to 126 °C | CCCOc1ccccc1-c1nc2c(C=CCc3ccccc3)cccc2c(=O)[nH]1
29 | 137 to 138 °C | CCOC(=O)Nc1ccn2cc(C)nc2c1Br
30 | > 300 °C | O=C(Nc1ccccn1)c1cnc2c(c1O)CCCC2
31 | 121 to 123 °C | CCOc1c(-c2ccc(S(C)(=O)=O)cc2)cnn(-c2ccc(F)c(F)c2)c1=O
32 | 147 to 148 °C | O=C(Nc1ccc(F)cc1)c1ccccc1-c1cccc(F)c1
33 | 108 to 111 °C | CCCOc1ccc(S)cc1C(N)=O
34 | 144 to 145 °C | Cc1nc(N2CCCC(Cc3cc(F)ccc3F)C2=O)sc1C(=O)NCc1ccccc1 (centres undefined)
35 | 202 to 204 °C | CCCc1[nH]c(=O)oc1-c1ccnc(-c2ccccc2)c1
36 | 91 to 92.5 °C | CN(C)CCC(=O)N1Cc2cccc3c2N(CC3)c2ccccc21
37 | 220 to 222 °C | NS(=O)(=O)c1ccc(-c2cnn(Cc3cccc(F)c3)c(=O)c2-c2ccc(F)cc2)cc1
38 | 44 to 51 °C | CC1COC(c2ccccc2)(c2ccc(Cl)nc2)O1 (centres undefined)
39 | 182 to 184 °C | C=Cc1cc(OC)cc2cc(-c3ccc(OC)cc3)oc12
40 | 172 °C | COc1ccc2[nH]c3c(C(=O)Nc4ccc(CCCCN(C)Cc5ccc(OC)c(OC)c5)cc4)cccc3c(=O)c2c1
41 | 223 to 224 °C | COc1cc(OCCOc2ccccc2)cc2nc(-c3cc(C)nc(C)c3)[nH]c(=O)c12
42 | 97 to 98 °C | CC(=O)C1(C)CCc2c(C)c(O)c(C)c(C)c2O1 (centres undefined)
43 | 156 to 158 °C | COc1ccnc2c1c(C(C)=O)cn2S(=O)(=O)c1ccccc1
44 | 335 to 336 °C | Cc1ccc(-n2nc(O)c3[nH]c4cc(Cl)cc(Cl)c4c(=O)c3c2=O)c(C)c1
45 | 215 °C | CCc1c(C(=O)O)nn(-c2ccc(Cl)cc2Cl)c1-c1ccc(Cl)cc1
46 | 127 to 128 °C | CCCCNC(=O)C(=O)Nc1ccc(OC)cc1[N+](=O)[O-]
47 | 94 to 95 °C | COc1ccc2cc(CCC(C)O)ccc2c1 (centres undefined)
48 | 217 to 219 °C | CCOC(=O)N1CCn2c(nc(-c3ccncn3)cc2=O)C(NCc2ccc(OC)cc2)C1 (racemic)

Row | melting point | SMILES
49 | 274 to 275 °C | COc1cccc2c(=O)cc(C=Cc3ccc(C#N)cc3)oc12
50 | 175 to 177 °C | O=C1N(Cc2ccc(C(F)(F)F)o2)c2ccccc2C12COc1ccc(=O)[nH]c12 (centres undefined)
51 | 148 to 150 °C | C[C@@H]1Cc2ccsc2[C@H](C)N1CCCNC(=O)c1ccc(NS(C)(=O)=O)cc1 (relative stereo)
52 | 214 to 216 °C | CCCc1nc2c(N)nc(C)c(C)c2n1CC1(O)CCCCC1
53 | 251 to 252 °C | O=C(O)CCC(=O)Nc1ccc(-c2ccncc2)cc1
54 | 67 to 68 °C | CC#CC(C)(C)N(C)C(=O)C(CC)Oc1cncc(Cl)c1 (centres undefined)
55 | 40 to 41 °C | COc1ccc(C(=O)CCCCCBr)cc1
56 | > 250 °C | CCCCC[C@H]1CC[C@H](c2ccc(-c3nc(N)nc(N)n3)cc2)CC1
57 | 149 to 151 °C | CN1C2CCC1CC(NC(=O)c1cccc3oc(-c4ccccc4)nc13)C2 (centres undefined)
58 | 243 to 244 °C | N#Cc1cc(C2=Nc3ccc(-n4cccc4)cc3NC(=O)C2)ccn1
59 | 110 to 112 °C | N#Cc1ccccc1OCCCN1CCC(NC(=O)C2CCCCC2)CC1
60 | 64 to 66 °C | COc1ccc(OCCCCCCI)cc1
61 | 74 to 76 °C | O=[N+]([O-])c1n[nH]c(-c2ccc(C(F)F)c(C(SC(c3cc(-c4nc([N+](=O)[O-])n[nH]4)ccc3C(F)F)C(F)(F)F)C(F)(F)F)c2)n1 (centres undefined)
62 | 175 °C | O=C(c1ccc(I)cc1)c1ccc2c(c1)c(-c1cccc(Cl)c1)nc1nnnn12
63 | 83 to 84 °C | COC(=O)c1c(Cl)cc(Cl)cc1NC(=O)C(C)c1ccccc1 (centres undefined)
64 | 84 to 85 °C | COc1cccc(C2CCC(=O)N2)c1 (centres undefined)
65 | 88.5 to 89.5 °C | N#Cc1ccc(N2CCc3ccccc32)cc1
66 | 94 to 96 °C | COC(=O)c1ccccc1-c1cc(-c2ccc(Cl)cc2Cl)no1
67 | 99 to 101 °C | CC(C)[C@@H]1OC(=O)N[C@@H]1C(=O)OCc1ccccc1
68 | 247 to 250 °C | Nc1nc2c(ncn2OCCCOCP(=O)(O)O)c(=O)[nH]1
69 | 155 °C | CS(=O)(=O)c1ccc(-c2cc(CO)nn2Cc2ccccc2)cc1
70 | 83 to 84 °C | Fc1ccc(COc2ncc(F)c(NCc3ccccc3F)n2)cc1
71 | 135 °C | CS(=O)(=O)Cc1cc(F)cc(F)c1
72 | 40 °C | C=CCOc1ccc(C(=O)CC(=O)C(C)(C)C)cc1OC

Row | melting point | SMILES
73 | 203 to 205 °C | CC(C)(C)OC(=O)c1ccsc1NC(=O)Nc1ccc(Oc2ccccc2)cc1
74 | 102 to 104 °C | C=CCON=C(C(=O)OCC)c1csc(N)n1
75 | 159 to 160 °C | C[C@@H](c1ccc(-c2ccc(F)cn2)cc1)N1CC[C@](CC(C)(C)O)(c2ccccc2)OC1=O
76 | 107 to 108 °C | CC(C)(COc1ccc(CC2SC(=O)NC2=O)cc1)c1ccccc1 (centres undefined)
77 | 118 °C | CC(C)C(c1ccc(N)cc1)n1cncn1 (centres undefined)
78 | 107 to 109 °C | CSc1ccc(C2=CC(=O)C(C)(C)O2)cc1
79 | 118 °C | CCCC(CCC)C(=O)c1ccc(O)c(C(=O)O)c1
80 | 206 to 207 °C | CCCCC(=O)Nc1ccc(C(=O)Nc2ccc3cc(CN4CCCC4)cnc3c2C)cc1
81 | 148 to 150 °C | O=[N+]([O-])c1cc(Br)cc2[nH]c(CCl)nc12
82 | 111 to 114 °C | CN(C)c1cc2c3c(cccc3c1)C(=O)N(CCCCCC(=O)O)C2=O
83 | 183 to 185 °C | CCCCOC(=O)c1ccc2nc(N)[nH]c2c1
84 | 134 to 136 °C | C=CCc1c(O)c(Cl)cc(F)c1N1C(=O)c2ccccc2C1=O
85 | 117 to 119 °C | CCCSc1sc(C(=O)N2CCCC2)c2c1C(=O)CC(C)(C)C2
86 | 196 to 198 °C | OCc1cccc(Nc2ncc(-c3ccccc3)s2)n1
87 | 94 to 95 °C | O=C(CCc1nc(-c2ccc(Cl)cc2)co1)OC(c1ccccc1)c1ccccc1
88 | 118 °C | C=CCOc1ccc(C=CC(=O)Oc2ccc(OC(=O)C(=C)C)cc2)cc1
89 | 205 to 207 °C | O=S(=O)(Nc1ccc2c(OCc3coc(-c4ccc(Br)cc4)n3)cccc2c1)C(F)(F)F
90 | 191 to 192 °C | CONC(=O)Nc1ccc(-c2sc3c(c2CN(C)C(C)c2ccccc2)c(=O)n(-c2ccccc2)c(=O)n3Cc2c(F)cccc2F)cc1 (centres undefined)
91 | 73 to 75 °C | CCCCCC(=O)NS(=O)(=O)/C=C/c1cc(OC(C)C)nn1Cc1ccc(Cl)cc1Cl
92 | 104 to 105 °C | CCN1c2ncc(Cc3cccc(F)c3)cc2C(=O)N(C)c2ccc(Cl)nc21
93 | 167 °C | O=C(Nc1ccc2ccc(Oc3ccccc3)nc2n1)c1ccco1
94 | 185 to 186 °C | COCCc1nc2c(N)nc3ccccc3c2n1CCOCCN(C)C(=O)Nc1ccccc1
95 | 168 to 170 °C | Cc1cc(-n2cnn(Cc3ccc(F)cc3)c2=O)sc1C(=O)NCc1cnn(C)c1
96 | 51 to 53 °C | O=C(CCCl)c1cc2c(s1)CCCC2

Row | SMILES | melting point
97 | Cc1ncc(CN2C(=O)c3ccccc3C2=O)n1-c1ccc(Cl)cc1C(=O)c1ccccc1F | 192 to 196 °C
98 | CN1CCCC1Cc1ccc(N)cc1 (centres undefined) | 59 to 61 °C
99 | O=C(NCCO[N+](=O)[O-])c1ccsc1 | 100 to 102 °C

— a melting point compilation (Tetko et al.; mined from patent text by program, amines drawn as free bases though some values may be those of a salt)
